The conditions of data set [1]: Liquid; for mass density: 298.15 K, 101.33 kPa.
Data set [2] is described as follows: refractive index (Na D-line) (dimensionless). The settings on record: 298.15 K; 101.33 kPa; Liquid; Standard Abbe refractometry.

SMILES strings stand for the structures. ± gives the expanded uncertainty stated by the source.

In the case of `CC(C)CC(C)(C)C` [2,2,4-trimethylpentane], the mass density – broadly, the mass of a sample divided by its volume – in data set [1] turned out to be 687.72 ± 0.81 kg/m3. Also, the vapor or sublimation pressure – broadly, the pressure of vapour in equilibrium with the condensed phase – in data set [1] (372.33 K) was found to be 101.32 ± 0.55 kPa. Also, the refractive index (usually a measure of how strongly the sample bends light) in data set [2] was 1.38887 ± 0.00072.
As for `CC(C)=O` [acetone], the mass density in data set [1] was 785.47 ± 0.61 kg/m3. The “vapor or sublimation pressure” value in data set [1] (329.26 K) stood at 101.32 ± 0.55 kPa. Besides, the refractive index in data set [2] came out at 1.35597 ± 0.00072.
Regarding `CCO` [ethanol], the mass density in data set [1] was 785.09 ± 0.62 kg/m3. The “vapor or sublimation pressure” value in data set [1] (351.44 K) stood at 101.32 ± 0.55 kPa. Besides, the refractive index in data set [2] stood at 1.35926 ± 0.00072.

For the origin of these results see the NIST ThermoML archive (doi:10.1016/j.fluid.2005.01.007).
